# Assay results reported in patent publication US20120016009A1, “Optimized Methods For Delivery Of DSRNA Targeting The PCSK9 Gene” (priority 2008, published 2012).
# In the oligonucleotide strings, read from the 5' end, every base follows the letter of its sugar. An asterisk marks phosphorothioate; unmarked linkages are phosphodiester. Other units and linkages are bracketed, terminal groups are in braces. A string of capitals states the bases alone. [Ab] = 3'-terminal abasic nucleotide; d = 2'-deoxy (DNA); m = 2'-O-methyl; r = 2'-OH (RNA); {P} = phosphate
# System: PCSK9 mRNA
# Assay: PCSK9 siRNA screening in HepG2 cells (lipofectamine 2000 transfection, PCSK9 mRNA by Quantigene, normalized to GAP-DH)
# Format: cell-based, human
# Conditions: 3 nM siRNA
# In short: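 HepG2 cells, grown in MEM with 10% fetal calf serum, antibiotics, non-essential amino acids and sodium pyruvate at 37° C. and 5% CO2, were plated at 2.0×10^4 cells/well in 96-well plates and transfected directly with siRNA using lipofectamine 2000. After 24 hours, cells were lysed and PCSK9 mRNA was measured by Quantigene and normalized to GAP-DH mRNA.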
row,Substance,Mean percent remaining mRNA transcript at siRNA concentration/in cell type 3 nM/HepG2
1,AD-9752: PCSK9 siRNA (sense mUrGrArArGrAmUrAmUmUmUrAmUmUmCmUrGrGrGdT*dT; antisense rCrCmCrArGrArAmUrArArAmUrArUrCrUrUmCrAdT*dT),33%
2,AD-9760: PCSK9 siRNA (sense mCmUmCmUrGmUmUrGmCmCmUmUmUmUmUrAmCrArGdT*dT; antisense rCrUrGmUrArArArArArGrGmCrArAmCrArGrArGdT*dT),27%
3,AD-9765: PCSK9 siRNA (sense rGmUrGmCmUrGrArGrGmCmCrAmCrGrArGrGmUmCdT*dT; antisense rGrArCrCrUrCrGrUrGrGrCrCrUmCrArGmCrArCdT*dT),74%

# Same assay, conditions: 30 nM siRNA
row,Substance,Mean percent remaining mRNA transcript at siRNA concentration/in cell type 30 nM/HepG2
1,AD-9752: PCSK9 siRNA (sense mUrGrArArGrAmUrAmUmUmUrAmUmUmCmUrGrGrGdT*dT; antisense rCrCmCrArGrArAmUrArArAmUrArUrCrUrUmCrAdT*dT),28%
2,AD-9753: PCSK9 siRNA (sense rArGrArGrAmCmUrGrAmUmCmCrAmCmUmUmCmUmCdT*dT; antisense rGrArGrArArGrUrGrGrArUmCrArGrUrCrUrCrUdT*dT),127%
3,AD-9754: PCSK9 siRNA (sense mUmUmCmUmCmUrGmCmCrArArArGrAmUrGmUmCrAdT*dT; antisense rUrGrAmCrArUrCrUrUrUrGrGmCrArGrArGrArAdT*dT),89%
4,AD-9756: PCSK9 siRNA (sense rGrGrGmCrArGrGrGmUmCrAmUrGrGmUmCrAmCmCdT*dT; antisense rGrGrUrGrArCmCrArUrGrArCrCrCrUrGrCrCrCdT*dT),63%
5,AD-9757: PCSK9 siRNA (sense mCmUmCmUrGmCmCrArArArGrAmUrGmUmCrAmUmCdT*dT; antisense rGrArUrGrAmCrArUrCrUrUrUrGrGmCrArGrArGdT*dT),78%
6,AD-9758: PCSK9 siRNA (sense mCrArAmCmUmUmUrGrGmCmCrGmCmUrGmUrGmUrGdT*dT; antisense mCrAmCrAmCrArGrCrGrGrCmCrArArArGrUrUrGdT*dT),96%
7,AD-9759: PCSK9 siRNA (sense mUrGrGmUmCrAmCmCrGmCmUrGmCmCrGrGmCrArAdT*dT; antisense rUrUrGrCrCrGrGmCrArGrCrGrGrUrGrArCmCrAdT*dT),111%
8,AD-9760: PCSK9 siRNA (sense mCmUmCmUrGmUmUrGmCmCmUmUmUmUmUrAmCrArGdT*dT; antisense rCrUrGmUrArArArArArGrGmCrArAmCrArGrArGdT*dT),14%
9,AD-9763: PCSK9 siRNA (sense rGrArGrGrGmCrArGrGrGmUmCrAmUrGrGmUmCrAdT*dT; antisense rUrGrArCmCrArUrGrArCrCrCrUrGrCrCrCrUrCdT*dT),79%
10,AD-9764: PCSK9 siRNA (sense mCmUrGrGrArGmUmUmUrAmUmUmCrGrGrArArArAdT*dT; antisense rUrUrUrUrCrCrGrArAmUrArArArCrUrCmCrArGdT*dT),112%
11,AD-9765: PCSK9 siRNA (sense rGmUrGmCmUrGrArGrGmCmCrAmCrGrArGrGmUmCdT*dT; antisense rGrArCrCrUrCrGrUrGrGrCrCrUmCrArGmCrArCdT*dT),82%

# System: PCSK9 mRNA
# Assay: In vitro screening of modified dsRNAs targeted to PCSK9 (Table 2b; cell type not given)
# Format: cell-based
# Conditions: 30 nM siRNA
# Method: For transfection with siRNA, HuH7, HepG2, or HeLa cells were seeded at a density of 2.0×10^4 cells/well in 96-well plates and transfected directly. Transfection of siRNA (30 nM for single dose screen) was carried out with lipofectamine 2000 (Invitrogen GmbH, Karlsruhe, Germany, cat. No. 11668-019) as described by the manufacturer.
# 24 hours after transfection HuH7 and HepG2 cells were lysed and PCSK9 mRNA levels were quantified with the Quantigene Explore Kit (Genosprectra, Dumbarton Circle Fremont, USA, cat. No. QG-000-02) according to the protocol. PCSK9 mRNA levels were normalized to GAP-DH mRNA. For each siRNA eight individual datapoints were collected. siRNA duplexes unrelated to PCSK9 gene were used as control. The activity of a given PCSK9 specific siRNA duplex was expressed as percent PCSK9 mRNA concentration in treated cells relative to PCSK9 mRNA concentration in cells treated with the control siRNA duplex.
# Tables 1b and 2b (and FIG. 6A) summarize the results and provide examples of in vitro screens in different cell lines at different doses. Silencing of PCSK9 transcript was expressed as percentage of remaining transcript at a given dose.
row,Substance,Remaining mRNA in % of controls at siRNA conc. of 30 nM
1,"AD-12038: modified dsRNA, SEQ ID NO:1311/1312 (chain 1 rGmCmCmUrGrGrArGmUmUmUrAmUmUmCrGrGrArAdT*dT; chain 2 mUrUrCrCrGrArArUrArArArCrUrCrCrArGrGrCdT*dT)",13%
2,"AD-12039: modified dsRNA, SEQ ID NO:1313/1314 (chain 1 rGmCmCmUrGrGrArGmUmUmUrAmUmUmCrGrGrArAdT*dT; chain 2 rUmUrCrCrGrArArUrArArArCrUrCrCrArGrGrCdT*dT)",29%
3,"AD-12040: modified dsRNA, SEQ ID NO:1315/1316 (chain 1 rGmCmCmUrGrGrArGmUmUmUrAmUmUmCrGrGrArAdT*dT; chain 2 rUrUmCrCrGrArArUrArArArCrUrCrCrArGrGrCdT*dT)",10%
4,"AD-12041: modified dsRNA, SEQ ID NO:1317/1318 (chain 1 rGmCmCmUrGrGrArGmUmUmUrAmUmUmCrGrGrArAdT*dT; chain 2 rUrUrCmCrGrArArUrArArArCrUrCrCrArGrGrCdT*dT)",11%
5,"AD-12042: modified dsRNA, SEQ ID NO:1319/1320 (chain 1 rGrCrCrUrGrGrArGrUrUrUrArUrUrCrGrGrArAdT*dT; chain 2 mUrUrCrCrGrArArUrArArArCrUrCrCrArGrGrCdT*dT)",12%
6,"AD-12043: modified dsRNA, SEQ ID NO:1321/1322 (chain 1 rGrCrCrUrGrGrArGrUrUrUrArUrUrCrGrGrArAdT*dT; chain 2 rUmUrCrCrGrArArUrArArArCrUrCrCrArGrGrCdT*dT)",13%
7,"AD-12044: modified dsRNA, SEQ ID NO:1323/1324 (chain 1 rGrCrCrUrGrGrArGrUrUrUrArUrUrCrGrGrArAdT*dT; chain 2 rUrUmCrCrGrArArUrArArArCrUrCrCrArGrGrCdT*dT)",7%
8,"AD-12045: modified dsRNA, SEQ ID NO:1325/1326 (chain 1 rGrCrCrUrGrGrArGrUrUrUrArUrUrCrGrGrArAdT*dT; chain 2 rUrUrCmCrGrArArUrArArArCrUrCrCrArGrGrCdT*dT)",8%
9,"AD-12046: modified dsRNA, SEQ ID NO:1327/1328 (chain 1 rGmCmCmUrGrGrArGmUmUmUrAmUmUmCrGrGrArA; chain 2 rUrUrCrCrGrArArUrArArArCrUrCrCrArGrGrC*mC*mU)",13%
10,"AD-12047: modified dsRNA, SEQ ID NO:1329/1330 (chain 1 rGmCmCmUrGrGrArGmUmUmUrAmUmUmCrGrGrArArA; chain 2 rUrUrUrCrCrGrArArUrArArArCrUrCrCrArGrGrC*mC*mU)",17%
11,"AD-12048: modified dsRNA, SEQ ID NO:1331/1332 (chain 1 rGmCmCmUrGrGrArGmUmUmUrAmUmUmCrGrGrArArArA; chain 2 rUrUrUrUrCrCrGrArArUrArArArCrUrCrCrArGrGrC*mC*mU)",43%
12,"AD-12049: modified dsRNA, SEQ ID NO:1333/1334 (chain 1 rGmCmCmUrGrGrArGmUmUmUrAmUmUmCrGrGrArArArArG; chain 2 rCrUrUrUrUrCrCrGrArArUrArArArCrUrCrCrArGrGrC*mC*mU)",34%
13,"AD-12050: modified dsRNA, SEQ ID NO:1335/1336 (chain 1 rGmCmCmUrGrGrArGmUmUmUrAmUmUmCrGrGrArAdTdT[Ab]; chain 2 rUrUrCrCrGrArArUrArArArCrUrCrCrArGrGrCdTdT[Ab])",16%
14,"AD-12051: modified dsRNA, SEQ ID NO:1337/1338 (chain 1 rGmCmCmUrGrGrArGmUmUmUrAmUmUmCrGrGrArArAdTdT[Ab]; chain 2 rUrUrUrCrCrGrArAmUrArArArCrUrCrCrArGrGrCdTdT[Ab])",31%
15,"AD-12052: modified dsRNA, SEQ ID NO:1339/1340 (chain 1 rGmCmCmUrGrGrArGmUmUmUrAmUmUmCrGrGrArArArAdTdT[Ab]; chain 2 rUrUrUrUrCrCrGrArArUrArArArCrUrCrCrArGrGrCdTdT[Ab])",81%
16,"AD-12053: modified dsRNA, SEQ ID NO:1341/1342 (chain 1 rGmCmCmUrGrGrArGmUmUmUrAmUmUmCrGrGrArArArArGdTdT[Ab]; chain 2 rCrUrUrUrUrCrCrGrArArUrArArArCrUrCrCrArGrGrCdTdT[Ab])",46%
17,"AD-12054: modified dsRNA, SEQ ID NO:1343/1344 (chain 1 rGrCrCrUrGrGrArGrUrUrUrArUrUrCrGrGrArAdT*dT; chain 2 rUrUrCrCrGrArArUrArArArCrUrCrCrArGrGrC*mC*mU)",8%
18,"AD-12055: modified dsRNA, SEQ ID NO:1345/1346 (chain 1 rGmCmCmUrGrGrArGmUmUmUrAmUmUmCrGrGrArAdT*dT; chain 2 rUrUrCrCrGrArArUrArArArCrUrCrCrArGrGrC*mC*mU)",13%
19,"AD-12056: modified dsRNA, SEQ ID NO:1347/1348 (chain 1 rGmCrCmUrGmGrAmGrUmUrUmArUmUrCmGrGmArA; chain 2 rUrUrCrCrGrArArUrArArArCrUrCrCrArGrGrCdTdT[Ab])",11%
20,"AD-12057: modified dsRNA, SEQ ID NO:1349/1350 (chain 1 rGmCrCmUrGmGrAmGrUmUrUmArUmUrCmGrGmArA; chain 2 rUrUrCrCrGrArArUrArArArCrUrCrCrArGrGrCdT*dT)",8%

# Same assay, conditions: data not shown; test system not given
row,Substance,IC50
1,"AD-3511: a derivative of AD-10792; sense SEQ ID NO: 1521, antisense SEQ ID NO: 1522 (sense rGmCmCmUrGrGrArGmUmUmUrAmUmUmCrGrGrArAdT*dT; antisense {P}-mUrUrCrCrGrArAmUrArArArCrUrCmCrArGrGrCdT*dT; further chemistry not fully specified)",0.07 to 0.2 nM
